Measurements: paper PMC10610134, “Verubulin (Azixa) Analogues with Increased Saturation: Synthesis, SAR and Encapsulation in Biocompatible Nanocontainers Based on Ca^2+ or Mg^2+ Cross-Linked Alginate” (Pharmaceuticals, 2023)
Where two headings read alike, the source gives them in different places.

Key:
A549 = details: cited from earlier work
[1] = test system: human breast cancer cell line MCF7′; assay: MTT cytotoxicity assay, MCF7′; assay type: cell-based; details: read-out: IC50, nM MCF7′
Source text: (§1) The obtained series of verubulin analogues 2a–r (which also included three by-products isolated in the reactions according to Scheme 2) were initially evaluated for cytotoxicity against commonly used human breast cancer cell line MCF7′ (fast-growth subclone), human lung epithelial carcinoma cell line A549 and etiologically non-cancer immortalized lung fibroblast cell line VA13 (WI38 subline 2RA). Cytotoxicity against immortalized human embryonic kidney cell line HEK293T, characterized by a high growth rate, was also studied regarding cytotoxicity against non-cancerous fast-growth cells. A standard MTT assay was performed; verubulin (1) served as a positive reference. The data obtained are presented in Table 1 (for dose–response curves, see Supplementary Materials).
(§2) Human breast cancer cell line MCF7′ and human lung adenocarcinoma cell line A549 were kindly provided by Dr. S. Dmitriev (Lomonosov Moscow State University), immortalized human fibroblast cell line VA13 (WI38 subline 2RA) was kindly provided by Dr. M. Rubtsova (Lomonosov Moscow State University), human embryonic kidney HEK293T cell line was kindly provided by Dr. E. Knyazhanskaya (Lomonosov Moscow State University). MCF7′, VA13, A549 and HEK293T cell lines were maintained in DMEM/F-12 (Thermo Fisher Scientific, Waltham, MA, USA) culture medium containing 10% fetal bovine serum (Thermo Fisher Scientific, Waltham, MA, USA) and 50 μg/mL penicillin and 0.05 mg/mL streptomycin at 37 °C (Thermo Fisher Scientific, Waltham, MA, USA) in 5% CO2. Cells were maintained at 37 °C in a humidified MCO-18AC incubator (Sanyo, Tokyo, Japan) supplied with 5% CO2. Cell cultures were tested for the absence of mycoplasma and validated by STR.
(§3) The cytotoxicity of the substances was tested using the 3-(4,5-dimethylthiazol-2-yl)2,5-diphenyl tetrazolium bromide (MTT) assay with some modifications. A total of 2500 cells per well for the MCF7′, HEK293T, A549 cell lines or 4000 cells per well for the VA-13 cell line were plated out in 135 μL of DMEM-F12 media (Gibco, Thermo Fisher Scientific, Waltham, MA, USA) in a 96-well plate and incubated in the 5% CO2 incubator for the first 20 h without treatment. Then, 15.8 μL of media–DMSO solutions of tested substances (final DMSO concentrations in the media were 0.5% or less) was added to the cells (triplicate each) and cells were treated for 64 h with 0.023 mg/L–50 mg/L (eight dilutions) of compounds 2f,n,o,r; 1.14 μg/L–2.5 mg/L (eight dilutions) of compounds 2a,b,d,g,h,k,l,p,q; 57.2 ng/L–125 μg/L (eight dilutions) of compounds 2e,i,j; 22.9 ng/L–50 μg/L (eight dilutions) of compounds 1,2c,m. Doxorubicin was used as a control substance. Then, the MTT reagent (Paneco LLC, Moscow, Russia) was added to cells up to a final concentration of 0.5 g/L (10 × stock solution in PBS was used) and incubated for 2 h at 37 °C in the incubator, under an atmosphere of 5% CO2. Then, the MTT solution was discarded, and 140 μL of DMSO (PharmaMed LLC, Moscow, Russia) was added. The plates were swayed on a shaker (120 rpm) to dissolve the formazan. The absorbance was measured using a microplate reader (VICTOR X5 Light Plate Reader, PerkinElmer, Waltham, MA, USA) at a wavelength of 555 nm (in order to measure formazan concentration). The results were used to construct dose–response graphs and to estimate IC50 values (IC50 is the concentration resulting in half of the maximal cytotoxic effect) with GraphPad Prism V, GraphPadSoftware, Inc., San Diego, CA, USA.

[2] = test system: human lung epithelial carcinoma cell line A549; assay: MTT cytotoxicity assay, A549; assay type: cell-based; details: read-out: IC50, nM A549
Source text: as §1, §2, §3

[3] = test system: immortalized lung fibroblast cell line VA13 (WI38 subline 2RA); assay: MTT cytotoxicity assay, VA13; assay type: cell-based; details: Homo sapiens, read-out: IC50, nM VA13
Source text: as §1, §2, §3

[4] = test system: immortalized human embryonic kidney cell line HEK293T; assay: MTT cytotoxicity assay, HEK293T; assay type: cell-based; details: HEK-293T, read-out: IC50, nM HEK293T
Source text: as §1, §2, §3

[5] = test system: MCF7′, A549, VA13, HEK293T cell lines; assay: MTT cytotoxicity, SAR statements over the cell line panel; assay type: cell-based, human; details: pair A549/VA13
Source text: as §1, §3

[6] = test system: tubulin (Tb) and microtubule-associated proteins (MAPs) from mouse brains; assay: Tubulin + MAP polymerization assay; assay type: biochemical; details: GTP-dependent polymerization, read-out: IC50 of tubulin polymerization (initial rates, optical density at 355 nm)
HCT116 cells = assay: Apoptosis induction, Annexin V / 7-AAD flow cytometry; assay type: cell-based, human; details: for Live (viable cells): human, 48 h
Procedure: Apoptosis is an important and active regulatory pathway of cell growth and proliferation. Annexin V is a calcium-dependent phospholipid-binding protein with a high affinity for phosphatidylserine (PS), a membrane component normally localized to the internal face of the cell membrane. Early in the apoptotic pathway, molecules of PS are translocated to the outer surface of the cell membrane where Annexin V can readily bind them.
After incubation, the cells were harvested by trypsinization, precipitated by centrifugation (3000 rpm), washed with cold PBS and recentrifuged. Aliquots of cells were processed as recommended in the Muse Annexin V& Dead Cell Kit (Luminex Corporation, Austin, TX, USA). The results were recorded on a Muse Cell Analyzer flow cytometer (Merck, Rahway, NJ, USA).

HCT116 cell line = assay: MTT cytotoxicity towards HCT116; assay type: cell-based, human; details: HCT-116
[7] = test system: microtubules in carcinoma A549 cells; assay: Immunofluorescent microscopy of microtubules; assay type: cell-based, human; details: 24 h, A549
Procedure: Since verubulin is known to stimulate microtubule disassociation, we performed an immunofluorescent microscopy study to determine the response of microtubule dynamics in carcinoma A549 cells to the treatment with representative compounds 2b,c,e. […] Aberrant cell morphology—contraction and rounding (Figure 2A,B) or contraction and elongation (Figure 2C)—was also observed.
A549 cells were seeded on coverslips (treated with poly-l-lysine at a concentration of 33 mg/L for an hour). Compounds were added up to the corresponding concentration after 24 h attachment and growth of the cells. Then, cells were incubated 24 h.
The cells were fixed with methanol (precooled in liquid nitrogen for 20 min), no additional permeabilization was performed. To prevent non-specific binding, cells were incubated with 4% BSA in PBS for one hour. Then, a solution of mouse monoclonal antibodies against alpha-tubulin cross-linked with Alexa 488 fluoroform (Thermo Fisher Scientific, Waltham, MA, USA, 32-2588) at a concentration of 5 μg/mL in 1% BSA solution in PBS was added to the cells, and the slides were incubated at +5 °C in a water chamber for 24 h. After the end of the incubation time, the cells were washed several times with PBS buffer solution and fixed on a glass slide with Moviol. Next day, cells were imaged with a ZEISS LSM 900 (ZEISS Microscopy, GmbH, Germany) and images processed with ImageJ.

MCF7/MCF10A = test system: MCF7/MCF10A; design: method as in PMID 36802449; details: cited from earlier work
[8] = 2 × IC50, 48 h, HCT116, listed as verubulin (1)
[9] = HCT116, human colon carcinoma, read-out: IC50

| Structure (SMILES) | IC50 (A549) [nM] | IC50 ([1]; MCF7, 64 h treatment, MTT) [nM] | IC50 ([2]; A549, 64 h treatment, MTT) [nM] | IC50 ([3]; VA-13, 64 h treatment, MTT) [nM] | IC50 ([4]; 64 h treatment, MTT) [nM] | IC50 (HCT116 cell line; [9]) [nM] | Live (viable cells) (HCT116 cells) [%] | further results |
| --- | --- | --- | --- | --- | --- | --- | --- | --- |
| COc1ccc2c(c1)NC(=O)CN2c1nc(C)nc2c1CCC2 [Banerjee 2021] | 4.5 | – | – | – | – | – | – | – |
| COc1ccc(N(C)c2nc(C)nc3ccccc23)cc1 [Compound 1, Verubulin] | 5 | – | – | – | – | – | – | IC50 ([1]; MCF7, 64 h): 1.4 ± 0.05 nM; IC50 ([2]; A549, 64 h): 1.1 ± 0.05 nM; IC50 ([3]; VA-13, 64 h): 0.84 ± 0.06 nM; IC50 ([4]; 64 h): 1 ± 0.02 nM; selectivity towards tumor cells [5]: no selectivity; IC50 [6]: 3100 ± 1100 nM; apoptotic cells, early plus late (HCT116 cells; 2 × IC50, 48 h, HCT116): 49.3%; Early Apop. (Annexin V (+), 7-AAD (−)) (HCT116 cells; [8]): 16.3%; Late Apop./Dead (Annexin V (+), 7-AAD (+)) (HCT116 cells; [8]): 33%; IC50 (HCT116 cell line; Homo sapiens): 3.2 ± 0.7 nM |
| COc1ccc2c(c1)CCCN2c1nc(C)nc2c1CCCC2 [Compound 2e, 4-(6-Methoxy-3,4-dihydroquinolin-1(2H)-yl)-2-methyl-5,6,7,8-tetrahydroquinazoline] | – | 12.6 ± 2.1 | 13.5 ± 2.2 | 7.1 ± 2 | 8.8 ± 2 | 22 ± 5 | – | effect on microtubules (MTs) ([7]; 10 μM): full depolymerization of MTs; effect on microtubules ([7]; 5–10 μM): pronounced or complete disruption of microtubules; IC50 [6]: 26000 ± 6000 nM |
| COc1ccc(N(C)c2nc(N)nc3c2CCCC3)cc1 [Compound 2i, N^4-(4-Methoxyphenyl)-N^4-methyl-5,6,7,8-tetrahydroquinazolinyl-2,4-diamine] | – | 10.2 ± 1.5 | 15 ± 2 | 6 ± 1.5 | 9.6 ± 2.2 | 40 ± 10 | 43.99 | Early Apop. (Annexin V (+), 7-AAD (−)) (HCT116 cells; 2 × IC50, 48 h, HCT116): 46.3% |
| COc1ccc2c(c1)CCCN2c1nc(N)nc2c1CCCC2 [Compound 2j, 2-Amino-4-(6-methoxy-3,4-dihydroquinolin-1(2H)-yl)-5,6,7,8-tetrahydroquinazoline] | – | 40.2 ± 7.8 | 50.5 ± 11.1 | 14.5 ± 3.9 | 28.9 ± 6.6 | 160 ± 30 | 30.81 | Early Apop. (Annexin V (+), 7-AAD (−)) (HCT116 cells; 2 × IC50, 48 h, HCT116): 56.4% |
| COc1ccc(N(C)c2nc(Cl)nc3c2CCCC3)cc1 [Compound 2m, 2-Chloro-N-(4-methoxyphenyl)-N-methyl-5,6,7,8-tetrahydroquinazolin-4-amine] | – | 3.3 ± 0.14 | 3 ± 0.2 | 1.3 ± 0.18 | 2.7 ± 0.12 | 1.8 ± 0.1 | 52.58 | selectivity towards tumor cells [5]: no selectivity; selectivity in the pair MCF7/MCF10A (MCF7/MCF10A): selective |
| COc1ccc(N(C)c2nc(Cl)nc3c2CCCC3)cc1 [Tan 2023] | 4.7 | – | – | – | – | – | – | – |
| COc1ccc2c(c1)CCCN2c1nc(C)nc2ccccc12 [Wang 2013] | – | – | – | – | – | – | – | GI50 (A549): 17.8 nM |
